The results in this text go back to patent publication US8426203B2, “Culture medium containing gamma-aminobutyric acid, pipecolic acid or lithium for the maintenance of stem cells in an undifferentiated state” (Wisconsin Alumni Research Foundation, priority 2004, dated 2013).

Test [1] deals with human ES cells. The test can be described thus: TeSR1 minus individual components, growth curve and FACS over three passages. Type of test: cell-based. On the procedure: FIG. 4 is a graphical representation of data showing that the medium described here results in robust growth of pluripotent stem cells in culture. Specifically, what is shown is growth curve analysis for human ES cells cultured in complete TeSR1 (positive control), and TeSR1 minus the following individual components: TGFβ, pipecolic acid (PA), GABA, LiCl and bFGF, and TeSR1 minus all five growth factors (TeSR1—ALL or negative control); 3×10^5 cells were plated at day 0 of each passage.
Triplicate wells of resulting cells were analyzed on day 6 of passage 3 by FACS for human ES cell markers. All results are presented for the H1 cell line; similar results were obtained for cell lines H7, H9 and H14.
Inventors used human ES cell lines H1, H7, H9 and H14 (Thomson, J. A. et al. Science 282, 1145-1147 (1998)) in a program of human ES cell media optimization that included modifications to the physiochemical environment, growth factor supplements and matrix components. To accomplish this, human ES cell lines H1, H7, H9, and H14 were cultured on Matrigel (Becton Dickinson) in fibroblast-conditioned medium as previously described (Xu, C. et al. Nature Biotechnology 19, 971-974 (2001)). Cells were transitioned into test media by direct passage from conditioned medium. Cultures of human ES cells were routinely passaged in clumps at approximately weekly intervals onto Matrigel or human matrix-coated plates by exposure to dispase (2.0 or 0.5 mg/ml respectively: Invitrogen). Following 7 minutes of dispase exposure, cells were rinsed 3 (three) times on the plate with medium, followed by gentle scraping to collect. Colonies were further broken up by gentle pipetting and then plated. The human matrix-coated plates were composed of 10 μg/cm^2 human collagen IV (Sigma or Becton Dickinson), 0.2 μg/cm^2 human vitronectin (Sigma), 5 μg/cm^2 human fibronectin (Sigma or Becton Dickinson) and 5 μg/cm^2 human laminin (Sigma). During the course of these studies we successfully used 4 lots of fibronectin, 2 lots of collagen, 3 lots of laminin, and 3 lots of vitronectin. For growth curve proliferation studies, 3-5×10^5 cells were plated on Day 0 of each passage into conditioned medium, TeSR1 or TeSR1 minus the following components: TGFβ, PA, GABA, LiCl and bFGF. Cells were cultured for three passages. Cells were harvested on Day 2-3 and Day 6-7 and counted using a Trypan Blue exclusion assay. At the end of passage three, cells were individualized by treatment with trypsin/EDTA and were analyzed by FACS for human ES cell markers Oct-4, SSEA-4, Tra 1-60 and Tra 1-81 as subsequently described.

Test [2] has as its system human pluripotent stem cells. In words: Omission of medium components, Oct-4 expression after seven days. The class given is cell-based. The note with it: for effect of omitting constituent on percentage of undifferentiated cells: Oct-4 expression. On the procedure: While a medium with all of the above constituents is sufficient and is preferred, not all of the components are necessary for the successful culture of human pluripotent stem cells. Depending on the amount of differentiated cells one is willing to tolerate, some of the components of the medium can be omitted, particularly if the medium is only used for a few passages. To further explore which constituents might be omitted, human pluripotent stem cells were cultured on variants of the above medium with differing components omitted. Two hundred thousand cells were plated and grown for seven days on each experimental medium, two wells per treatment. The cells were then assayed for expression of the transcription factor Oct-4, a recognized marker of undifferentiated cells.
The data from that experiment are presented graphically in FIG. 7, where the numbers of Oct-4 expressing cells in each experimental medium are presented as a fraction of that from the preferred medium TeSR1. […] The difference between the percentage of undifferentiated cells and the omitted constituent is quantitative. Regardless of the omitted constituent, the medium does work, at least to some degree for limited cell passages, without each of the omitted components.

The test system of test [3] is ES03-DL1-K hES cells. In words: Cloning efficiency at different BME concentrations in TeSR1. Type of test: cell-based, human. On the procedure: FIG. 15 illustrates the growth of hES cells grown in mTeSR1 with five different concentrations of beta mercaptoethanol (βME). ES03-DL1-K were grown for one to five passages, visualized (a), counted to determine proliferation and cloning efficiency (b), and stained using […] for Oct-4 and SSEA-4 to identify differentiation status of the cells (c). The treatment concentrations consisted of 0, 1.75, 3.5, 7, and 14 μL βME/500 mL of total TeSR1 media. Results shown are the mean from growth in 3 wells/treatment. This experiment was repeated multiple times both with ES03-DL1-K and H9-WA09 cells with similar results.
Specifically, to optimize the physiochemical environment, human ES cells with an EGFP reporter gene and a neomycin resistance cassette under control of the endogenous Oct-4 gene were utilized for the physiochemical optimization assays. […] At the end of the growth period, cells from independent wells were individualized by treatment with trypsin/EDTA, counted and subjected to FACS analysis as subsequently described. To determine cloning efficiency of the cells, resulting colonies were stained with BCIP/NTB alkaline phosphatase substrate kit IV (Vector Laboratories) and counted. Percentages were determined by dividing colony number obtained by the initial number of cells plated. […]

Take TGFβ: transforming growth factor beta: in test [1], the “effect of removal of the factor from TeSR1 on culture performance” value (“effect of removal of the factor” below) is given as “significantly decreased some parameter of culture performance”. For the same molecule, in test [2] (short-term culture, high levels of FGF), the “necessity of component (Oct-4 expressing cells as fraction of TeSR1)” value is “least necessary component”.

Turning to `NCCCC(=O)O` [GABA, gamma-aminobutyric acid], the “effect of removal of the factor” value in test [1] is “significantly decreased some parameter of culture performance”. The “effect of omitting constituent on percentage of undifferentiated cells” value (“effect … on percentage of undifferentiated cells” for short) in test [2] was “increased percentages of undifferentiated cells”.

As to “bFGF: fibroblast growth factor, also referred to as FGF2”, in test [1], the “effect of removal from TeSR1 on total cell number and percentage of cells expressing ES cell markers” value is given as “consistently decreased”; the “effect of removal of the factor” value is “significantly decreased some parameter of culture performance”. The “effect … on percentage of undifferentiated cells” value in test [2] is listed as “increased percentages of undifferentiated cells”.

For the molecule `[Cl-].[Li+]` [LiCl, lithium chloride], the “effect of removal of the factor” value in test [1] is on record as “significantly decreased some parameter of culture performance”. Besides, in test [2], the “effect … on percentage of undifferentiated cells” value is recorded as “increased percentages of undifferentiated cells”.

Turning to `O=C(O)C1CCCCN1` (stereo not shown) [PA, pipecolic acid], in test [1], the “effect of removal of the factor” value is given as “significantly decreased some parameter of culture performance”. For the same molecule, in test [2], the “effect … on percentage of undifferentiated cells” value is reported as “increased percentages of undifferentiated cells”.

With `OCCS` [BME, β-mercaptoethanol], the “cloning efficiency of the cells” value in test [3] (0 and 1.75 μL BME/500 mL of total media, modified TeSR1) is “large increases in cloning efficiency”. Further, in test [3] (BME omitted or less than about 0.1 mM in TeSR1 vs same medium with higher than about 0.1 mM BME), the “increase in cloning efficiency” value is on record as “at least 10%”.
